Measured values taken from the NIST ThermoML archive (doi:10.1021/je050085p).

Experiments:
[1] = 101.33 kPa, Liquid
[2] = refractive index (Na D-line) (dimensionless); conditions: 101.33 kPa, Liquid, Standard Abbe refractometry
[3] = excess molar enthalpy (molar enthalpy of mixing); xn = mol fraction of the nth substance listed; conditions: 308.15 K, 101 kPa, Liquid, Flow calorimetry
[4] = xn = mol fraction of the nth substance listed; conditions: 308.15 K, 101 kPa, Liquid
[5] = refractive index (Na D-line) (dimensionless); xn = mol fraction of the nth substance listed; conditions: 308.15 K, 101 kPa, Liquid, Standard Abbe refractometry

OCCc1ccccc1 [2-phenylethanol]
Conditions	mass density, [1] [kg/m3]	refractive index, [2]
298.15 K	–	1.5321
308.15 K	1008.75	1.5269

OCCc1ccccc1 [2-phenylethanol] + COc1ccccc1
Conditions	excess molar enthalpy [kcal/mol]	mass density [kg/m3]	refractive index
[3], x2 = 0.0437	0.0227	–	–
[3], x2 = 0.0838	0.0478	–	–
[3], x2 = 0.1206	0.0728	–	–
[3], x2 = 0.1546	0.0948	–	–
[3], x2 = 0.2153	0.134	–	–
[3], x2 = 0.2678	0.164	–	–
[3], x2 = 0.3543	0.207	–	–
[3], x2 = 0.4224	0.228	–	–
[3], x2 = 0.5232	0.25	–	–
[3], x2 = 0.6221	0.269	–	–
[3], x2 = 0.687	0.273	–	–
[3], x2 = 0.767	0.267	–	–
[3], x2 = 0.8145	0.251	–	–
[3], x2 = 0.8682	0.217	–	–
[3], x2 = 0.9006	0.185	–	–
[3], x2 = 0.9294	0.147	–	–
[3], x2 = 0.9634	0.0864	–	–
[4], x2 = 0.0521	–	1007.44	–
[4], x2 = 0.1223	–	1005.63	–
[4], x2 = 0.2121	–	1003.26	–
[4], x2 = 0.3153	–	1000.43	–
[4], x2 = 0.4172	–	997.53	–
[4], x2 = 0.5245	–	994.36	–
[4], x2 = 0.617	–	991.55	–
[4], x2 = 0.7479	–	987.5	–
[4], x2 = 0.7673	–	986.9	–
[4], x2 = 0.811	–	985.5	–
[4], x2 = 0.9073	–	982.55	–
[4], x2 = 0.9513	–	981.2	–
[5], x2 = 0.0521	–	–	1.526
[5], x2 = 0.1223	–	–	1.5248
[5], x2 = 0.2121	–	–	1.5233
[5], x2 = 0.3153	–	–	1.5217
[5], x2 = 0.4172	–	–	1.52
[5], x2 = 0.5245	–	–	1.5182
[5], x2 = 0.617	–	–	1.5165
[5], x2 = 0.7479	–	–	1.514
[5], x2 = 0.7673	–	–	1.5136
[5], x2 = 0.811	–	–	1.5127
[5], x2 = 0.9073	–	–	1.5106
[5], x2 = 0.9513	–	–	1.5096

OCCCc1ccccc1 [3-phenyl-1-propanol]
Conditions	mass density, [1] [kg/m3]	refractive index, [2]
298.15 K	–	1.5259
308.15 K	991.01	1.5214

OCCCc1ccccc1 [3-phenyl-1-propanol] + CCOc1ccccc1
Conditions	excess molar enthalpy [kcal/mol]	mass density [kg/m3]	refractive index
[3], x2 = 0.0427	0.0329	–	–
[3], x2 = 0.0818	0.0631	–	–
[3], x2 = 0.118	0.088	–	–
[3], x2 = 0.1513	0.114	–	–
[3], x2 = 0.211	0.146	–	–
[3], x2 = 0.2629	0.167	–	–
[3], x2 = 0.3485	0.193	–	–
[3], x2 = 0.4162	0.212	–	–
[3], x2 = 0.5169	0.236	–	–
[3], x2 = 0.6162	0.257	–	–
[3], x2 = 0.6815	0.267	–	–
[3], x2 = 0.7625	0.267	–	–
[3], x2 = 0.8106	0.255	–	–
[3], x2 = 0.8596	0.225	–	–
[3], x2 = 0.8954	0.194	–	–
[3], x2 = 0.9277	0.152	–	–
[3], x2 = 0.9625	0.0896	–	–
[4], x2 = 0.0636	–	988.77	–
[4], x2 = 0.1067	–	987.22	–
[4], x2 = 0.2164	–	983.2	–
[4], x2 = 0.31	–	979.65	–
[4], x2 = 0.417	–	975.46	–
[4], x2 = 0.515	–	971.51	–
[4], x2 = 0.6168	–	967.29	–
[4], x2 = 0.7074	–	963.43	–
[4], x2 = 0.7975	–	959.53	–
[4], x2 = 0.8977	–	955.2	–
[4], x2 = 0.9488	–	952.99	–
[4], x2 = 0.9596	–	952.53	–
[5], x2 = 0.0636	–	–	1.5203
[5], x2 = 0.1067	–	–	1.5194
[5], x2 = 0.2164	–	–	1.5173
[5], x2 = 0.31	–	–	1.5153
[5], x2 = 0.417	–	–	1.513
[5], x2 = 0.515	–	–	1.5109
[5], x2 = 0.6168	–	–	1.5086
[5], x2 = 0.7074	–	–	1.5066
[5], x2 = 0.7975	–	–	1.5045
[5], x2 = 0.8977	–	–	1.5023
[5], x2 = 0.9488	–	–	1.5012
[5], x2 = 0.9596	–	–	1.501

OCCCc1ccccc1 [3-phenyl-1-propanol] + COc1ccccc1
Conditions	excess molar enthalpy [kcal/mol]	mass density [kg/m3]	refractive index
[3], x2 = 0.0493	0.0303	–	–
[3], x2 = 0.094	0.059	–	–
[3], x2 = 0.1347	0.0863	–	–
[3], x2 = 0.1719	0.107	–	–
[3], x2 = 0.2374	0.145	–	–
[3], x2 = 0.2934	0.171	–	–
[3], x2 = 0.3838	0.205	–	–
[3], x2 = 0.4536	0.224	–	–
[3], x2 = 0.5547	0.246	–	–
[3], x2 = 0.6514	0.261	–	–
[3], x2 = 0.7136	0.265	–	–
[3], x2 = 0.7889	0.258	–	–
[3], x2 = 0.8328	0.239	–	–
[3], x2 = 0.877	0.207	–	–
[3], x2 = 0.9088	0.175	–	–
[3], x2 = 0.9373	0.133	–	–
[3], x2 = 0.9676	0.0777	–	–
[4], x2 = 0.0579	–	990.46	–
[4], x2 = 0.1201	–	989.91	–
[4], x2 = 0.2636	–	988.55	–
[4], x2 = 0.384	–	987.28	–
[4], x2 = 0.4475	–	986.57	–
[4], x2 = 0.5551	–	985.27	–
[4], x2 = 0.6495	–	984.07	–
[4], x2 = 0.7477	–	982.78	–
[4], x2 = 0.8274	–	981.73	–
[4], x2 = 0.8652	–	981.26	–
[4], x2 = 0.913	–	980.67	–
[4], x2 = 0.9588	–	980.14	–
[5], x2 = 0.0579	–	–	1.5208
[5], x2 = 0.1201	–	–	1.5201
[5], x2 = 0.2636	–	–	1.5186
[5], x2 = 0.384	–	–	1.5173
[5], x2 = 0.4475	–	–	1.5166
[5], x2 = 0.5551	–	–	1.5154
[5], x2 = 0.6495	–	–	1.5142
[5], x2 = 0.7477	–	–	1.5129
[5], x2 = 0.8274	–	–	1.5118
[5], x2 = 0.8652	–	–	1.5113
[5], x2 = 0.913	–	–	1.5108
[5], x2 = 0.9588	–	–	1.5101

COc1ccccc1 [anisole]
Conditions	mass density, [1] [kg/m3]	refractive index, [2]
298.15 K	989.3	1.5153
308.15 K	979.71	1.5095
